Laboratory results taken from publication PMC7855594 (Cell chemical biology, 2020).
One block for each molecule: values may come before it.

How the values were obtained:
USP7 [1] = target: T1, USP7 (Homo sapiens, UniProt Q93009); type: biochemical
USP7 [2] = target: T1, USP7; type: biochemical; remark: listed apart in the source
USP7 [3] = target: T1, USP7; experiment: purified enzyme biochemical assay; conditions: cited from earlier work

T1 sequence (Q93009 whole entry): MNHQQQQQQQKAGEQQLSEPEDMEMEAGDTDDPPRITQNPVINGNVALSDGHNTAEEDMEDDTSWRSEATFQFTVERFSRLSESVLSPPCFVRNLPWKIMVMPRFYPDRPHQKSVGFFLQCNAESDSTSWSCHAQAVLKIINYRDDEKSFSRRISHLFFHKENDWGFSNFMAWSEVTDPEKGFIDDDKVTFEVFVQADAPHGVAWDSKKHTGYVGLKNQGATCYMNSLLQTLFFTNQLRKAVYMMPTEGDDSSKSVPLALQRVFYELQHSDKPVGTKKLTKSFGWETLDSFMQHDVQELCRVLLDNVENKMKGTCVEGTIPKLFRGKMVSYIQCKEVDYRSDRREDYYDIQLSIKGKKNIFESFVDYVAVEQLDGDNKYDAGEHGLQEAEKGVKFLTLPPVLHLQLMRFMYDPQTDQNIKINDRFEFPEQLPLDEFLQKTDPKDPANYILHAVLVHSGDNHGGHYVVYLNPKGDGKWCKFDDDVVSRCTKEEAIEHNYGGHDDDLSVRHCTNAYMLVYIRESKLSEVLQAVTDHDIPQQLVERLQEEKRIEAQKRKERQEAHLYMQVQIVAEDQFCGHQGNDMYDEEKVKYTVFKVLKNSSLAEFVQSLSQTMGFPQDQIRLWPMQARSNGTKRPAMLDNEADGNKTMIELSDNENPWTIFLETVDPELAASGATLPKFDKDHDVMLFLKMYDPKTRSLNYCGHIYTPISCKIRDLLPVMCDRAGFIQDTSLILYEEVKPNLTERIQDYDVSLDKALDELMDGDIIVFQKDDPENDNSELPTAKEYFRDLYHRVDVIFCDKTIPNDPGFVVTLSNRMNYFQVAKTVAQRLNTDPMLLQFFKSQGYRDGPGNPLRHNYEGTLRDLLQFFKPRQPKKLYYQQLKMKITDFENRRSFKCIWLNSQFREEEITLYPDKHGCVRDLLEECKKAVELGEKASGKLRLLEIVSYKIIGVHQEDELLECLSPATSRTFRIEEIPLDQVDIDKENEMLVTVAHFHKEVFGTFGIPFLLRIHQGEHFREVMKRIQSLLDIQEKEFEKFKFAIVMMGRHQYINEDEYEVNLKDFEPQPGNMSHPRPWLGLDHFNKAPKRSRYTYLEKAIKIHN

% inhibition at 1 μM (USP7 [1]): 100
Structure (SMILES): CN1CCN(CCC(=O)Nc2ccc3c(=O)n(CC4(O)CCN(C(=O)[C@@H](CCCNC(=O)c5ccc6c(Cl)c7c(nc6c5)CCCC7)Cc5ccccc5)CC4)cnc3c2)CC1 [XL177A]

% inhibition at 10 μM (USP7 [2]): 100
Structure (SMILES): C[C@H](CC(=O)N1CCC(O)(Cn2cnc3cc(NC(=O)CCN4CCN(C)CC4)ccc3c2=O)CC1)c1ccccc1 [XL188]

Structure (SMILES): C[C@@H](CC(=O)N1CCC(O)(Cn2cnc3cc(NC(=O)CCN4CCN(C)CC4)ccc3c2=O)CC1)c1ccccc1 [XL203C]
IC50 (USP7 [3]): 7 µM
